In paper PMC7892437 (Frontiers in Pharmacology, 2021):
Where “and” joins values, the source holds several entries; their conditions need not be identical. Identical values can stand only once. Like-named read-outs stand apart in the source and are kept apart here.

Key:
[1] = test system: VSV-SARS-CoV-2-Sdel18 pseudovirus; experiment: microbe, parasite or virus in culture; format: cell-based
[2] = test system: SARS-CoV-2 BetaCoV/Shenzhen/SZTH-003/2020 strain; experiment: microbe, parasite or virus in culture; format: cell-based; settings: for inhibitory effect relative to Chloroquine diphosphate: authentic SARS-CoV-2 assay, in vitro
in vitro = settings: hamster
VSV-G = format: cell-based, vesicular stomatitis virus
Ebola virus = settings: ref Johansen et al., 2013; cited from earlier work
[3] = Pseudovirus, read-out: Co-treatment IC50
[4] = Pseudovirus, read-out: Co-treatment IC90
[5] = Pseudovirus, read-out: Pre-treatment IC50
[6] = Pseudovirus, read-out: Pre-treatment IC90
[7] = Severe acute respiratory syndrome coronavirus 2, Vero, 120 h

Compound: Cc1ccc(Sc2ccccc2N2CCNCC2)c(C)c1 [Vortioxetine]
- IC90 [1]: 46.6 µM
- IC50 ([1]; Pseudovirus, 12 h): 7.16 µM
- IC90 ([1]; Pseudovirus, 12 h): < 50 µM
- IC50 [1, 3]: 6.77 µM
- IC90 [1, 4]: 22.3 µM
- IC50 [1, 5]: 3 µM
- IC90 [1, 6]: 13.8 µM
- IC50 [2, 7]: 8.03 µM
- IC90 [2, 7]: 18.3 µM
- inhibitory effect relative to Chloroquine diphosphate [2]: comparable to Chloroquine diphosphate
- CC50 (in vitro; Co-treatment CC50): 27.1 µM
- CC50 (in vitro; Pre-treatment CC50): 28.5 µM

Compound: CN1C[C@@H]2c3ccccc3Oc3ccc(Cl)cc3[C@H]2C1.Cl (racemic) [Asenapine (hydrochloride)]
- IC90 ([1]; read-out: IC90): 76.4 µM
- IC90 [2]: 43 µM
- cell cytotoxicity (BHK21-hACE2 cells; at the concentration of 100 μM): no obvious cell cytotoxicity was observed

Compound: CCN(CC)CCCC(C)Nc1ccnc2cc(Cl)ccc12 (stereo not shown) [Chloroquine diphosphate]
- IC50 ([1]; Pseudovirus, 12 h): 11.6 µM
- IC90 ([1]; Pseudovirus, 12 h): 85.2 µM
- IC50 [1, 3]: 27.6 µM
- IC50 [1, 5]: 9.27 µM
- IC90 [1, 6]: 35.2 µM
- IC50 [2, 7]: 5.33 µM
- IC90 [2, 7]: 12.9 µM

Compound: CC[C@@H]1/C=C(\C)C[C@H](C)C[C@H](OC)[C@H]2O[C@@](O)(C(=O)C(=O)N3CCCC[C@H]3C(=O)O[C@H](/C(C)=C/[C@@H]3CC[C@H](Cl)[C@H](OC)C3)[C@H](C)[C@@H](O)CC1=O)[C@H](C)C[C@@H]2OC [Pimecrolimus]
- IC90 [1]: 32 µM
- IC50 ([1]; Pseudovirus, 12 h): 11.3 µM
- IC90 ([1]; Pseudovirus, 12 h): < 50 µM
- cytotoxicity compared with the other selected drugs (BHK21-hACE2 cells): more serious cytotoxic than other drugs

Compound: CN(C)CCOc1ccc(/C(=C(/CCCl)c2ccccc2)c2ccccc2)cc1 [Toremifene (Citrate)]
- IC50 ([1]; read-out: IC50): 5.53 µM
- IC90 ([1]; read-out: IC90): 86.5 µM

Compound: NC(=O)c1ncn([C@@H]2O[C@H](CO)[C@@H](O)[C@H]2O)n1 [Ribavirin]
- IC50 ([1]; Pseudovirus, 12 h): 9.29 µM
- IC90 ([1]; Pseudovirus, 12 h): 62.1 µM
- inhibitory effect on VSV-G (VSV-G): significant inhibitor effects

Compound: CCN(CC)CCOc1ccc(C(=C(Cl)c2ccccc2)c2ccccc2)cc1 [Clomiphene (citrate)]
- IC90 [1, 4]: 19.6 µM
- IC90 [2, 7]: 33.9 µM
- CC50 (in vitro; Co-treatment CC50): 54.4 µM
- CC50 (in vitro; Pre-treatment CC50): 24.9 µM

Compound: CN(C)c1ccc2nc3ccc(=[N+](C)C)cc-3sc2c1 [Methylene Blue]
- IC50 ([1]; Pseudovirus, 12 h): 9.05 µM
- IC90 ([1]; Pseudovirus, 12 h): 70.5 µM

Compound: Br.Cc1ccc(Sc2ccccc2N2CCNCC2)c(C)c1 [Vortioxetine (hydrobromide)]
- IC50 ([1]; read-out: IC50): 6.99 µM
- IC90 ([1]; read-out: IC90): < 50 µM and 44.6 µM
- IC50 [2]: 28.1 µM
- IC90 [2]: 62.8 µM
- inhibitory effect relative to Chloroquine diphosphate [2]: slightly less effective

Compound: CCCCc1oc2ccccc2c1C(=O)c1cc(I)c(OCCN(CC)CC)c(I)c1.Cl [Amiodarone (hydrochloride)]
- effect on authentic SARS-CoV-2 virus infection ([2]; at a concentration of 100 μM): no effect

Compound: CCN(CC)CCOc1ccc(C(=C(Cl)c2ccccc2)c2ccccc2)cc1 [Clomiphene]
- survival benefit for infected mice (Ebola virus): 90%

Compound: CN1CCc2c(c3ccccc3n2Cc2ccccc2)C1 [Mebhydrolin (napadisylate)]
- IC50 ([1]; read-out: IC50): 12.1 µM
- IC90 ([1]; read-out: IC90): 133 µM

Compound: CN1CCN(CCCN2c3ccccc3Sc3ccc(C(F)(F)F)cc32)CC1.Cl.Cl [Trifluoperazine (dihydrochloride)]
- IC50 ([1]; read-out: IC50): 5.44 µM
- IC90 ([1]; read-out: IC90): < 50 µM and 27.3 µM
- cytotoxicity compared with the other selected drugs (BHK21-hACE2 cells): more serious cytotoxic than other drugs
